ChEMBL document CHEMBL3875218, “Bifunctional conjugates with potent inhibitory activity towards cyclooxygenase and histone deacetylase” (Bioorg Med Chem, 2017)

Legend:
LNCaP [1] = assay: Induction of cell cycle arrest in human LNCAP cells assessed as accumulation at lesser G1 phase at 2.5 uM after 24 hrs by propidium iodide staining based FACS analysis (reference value: 1.59%); type: functional
[2] = target: T1, Prostaglandin G/H synthase 1 (Ovis aries, UniProt P05979); assay: Inhibition of sheep COX1 using arachidonic acid as substrate preincubated for 15 mins followed by substrate addition for 2 mins by Cayman based fluorescence assay
T1 sequence (P05979 whole entry): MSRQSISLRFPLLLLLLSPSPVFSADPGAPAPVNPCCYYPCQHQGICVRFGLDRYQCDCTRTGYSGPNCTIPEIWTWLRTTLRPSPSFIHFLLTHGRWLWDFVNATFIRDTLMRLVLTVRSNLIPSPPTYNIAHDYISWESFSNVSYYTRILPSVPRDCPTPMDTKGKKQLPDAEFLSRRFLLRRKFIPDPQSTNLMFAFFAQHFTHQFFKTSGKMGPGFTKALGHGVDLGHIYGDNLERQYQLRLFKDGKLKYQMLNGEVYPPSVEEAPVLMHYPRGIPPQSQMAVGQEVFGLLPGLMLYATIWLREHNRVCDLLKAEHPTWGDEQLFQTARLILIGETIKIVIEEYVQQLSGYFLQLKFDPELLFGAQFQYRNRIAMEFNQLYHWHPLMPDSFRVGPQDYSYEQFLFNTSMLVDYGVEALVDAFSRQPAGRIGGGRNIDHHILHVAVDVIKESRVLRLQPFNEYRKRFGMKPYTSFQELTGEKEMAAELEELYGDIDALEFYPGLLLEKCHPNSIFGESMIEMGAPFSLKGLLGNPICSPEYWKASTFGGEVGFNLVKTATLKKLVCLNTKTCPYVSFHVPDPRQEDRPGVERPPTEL

[3] = Cytotoxicity against human HeLa cells assessed as cell growth inhibition after 72 hrs by MTT assay
[4] = target: T2, Prostaglandin G/H synthase 1 (Ovis aries) (UniProt P05979); assay: Inhibition of sheep COX1 at 10 uM using arachidonic acid as substrate preincubated for 15 mins followed by substrate addition for 2 mins by Cayman based fluorescence assay
T2 sequence (whole entry): T1 sequence (P05979 whole entry)

[5] = target: T3, Protein deacetylase HDAC6 (Homo sapiens, UniProt Q9UBN7); assay: Inhibition of HDAC6 (unknown origin) after 20 hrs by SAMDI mass spectroscopic analysis
T3 sequence (Q9UBN7 whole entry): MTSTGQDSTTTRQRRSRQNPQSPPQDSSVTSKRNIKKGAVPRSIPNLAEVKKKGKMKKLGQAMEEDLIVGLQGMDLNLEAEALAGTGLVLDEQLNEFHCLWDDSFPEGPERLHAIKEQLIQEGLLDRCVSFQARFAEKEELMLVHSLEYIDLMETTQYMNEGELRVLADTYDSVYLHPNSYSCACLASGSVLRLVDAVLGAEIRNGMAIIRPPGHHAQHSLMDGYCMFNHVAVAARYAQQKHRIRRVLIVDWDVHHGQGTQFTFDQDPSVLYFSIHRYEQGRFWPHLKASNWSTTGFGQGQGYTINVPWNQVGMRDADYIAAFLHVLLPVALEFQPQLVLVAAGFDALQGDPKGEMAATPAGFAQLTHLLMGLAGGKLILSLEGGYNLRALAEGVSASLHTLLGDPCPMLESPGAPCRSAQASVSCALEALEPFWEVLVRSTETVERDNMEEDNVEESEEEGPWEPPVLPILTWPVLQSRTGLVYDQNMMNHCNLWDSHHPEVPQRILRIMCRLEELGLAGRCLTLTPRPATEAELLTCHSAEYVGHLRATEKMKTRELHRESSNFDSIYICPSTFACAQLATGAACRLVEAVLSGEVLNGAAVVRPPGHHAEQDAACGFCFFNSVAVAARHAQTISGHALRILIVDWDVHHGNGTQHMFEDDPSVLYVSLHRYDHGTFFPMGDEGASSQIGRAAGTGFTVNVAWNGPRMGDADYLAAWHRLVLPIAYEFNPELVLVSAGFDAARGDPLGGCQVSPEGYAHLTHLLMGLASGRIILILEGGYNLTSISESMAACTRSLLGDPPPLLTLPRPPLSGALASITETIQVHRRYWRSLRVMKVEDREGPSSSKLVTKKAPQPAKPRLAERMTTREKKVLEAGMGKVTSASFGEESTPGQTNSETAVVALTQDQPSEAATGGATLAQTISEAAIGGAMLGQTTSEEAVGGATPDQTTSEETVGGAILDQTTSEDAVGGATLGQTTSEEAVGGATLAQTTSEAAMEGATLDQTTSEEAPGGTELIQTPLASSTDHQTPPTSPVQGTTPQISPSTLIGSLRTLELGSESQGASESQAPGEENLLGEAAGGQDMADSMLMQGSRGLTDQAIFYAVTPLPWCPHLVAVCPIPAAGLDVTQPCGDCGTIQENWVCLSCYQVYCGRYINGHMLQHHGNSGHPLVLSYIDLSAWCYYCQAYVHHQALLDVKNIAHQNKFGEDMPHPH

Histone deacetylase 2 = Histone deacetylase 2 (Homo sapiens, UniProt Q92769); assay: Inhibition of HDAC2 (unknown origin) after 24 hrs by SAMDI mass spectroscopic analysis
Histone deacetylase 2, sequence (Q92769 whole entry): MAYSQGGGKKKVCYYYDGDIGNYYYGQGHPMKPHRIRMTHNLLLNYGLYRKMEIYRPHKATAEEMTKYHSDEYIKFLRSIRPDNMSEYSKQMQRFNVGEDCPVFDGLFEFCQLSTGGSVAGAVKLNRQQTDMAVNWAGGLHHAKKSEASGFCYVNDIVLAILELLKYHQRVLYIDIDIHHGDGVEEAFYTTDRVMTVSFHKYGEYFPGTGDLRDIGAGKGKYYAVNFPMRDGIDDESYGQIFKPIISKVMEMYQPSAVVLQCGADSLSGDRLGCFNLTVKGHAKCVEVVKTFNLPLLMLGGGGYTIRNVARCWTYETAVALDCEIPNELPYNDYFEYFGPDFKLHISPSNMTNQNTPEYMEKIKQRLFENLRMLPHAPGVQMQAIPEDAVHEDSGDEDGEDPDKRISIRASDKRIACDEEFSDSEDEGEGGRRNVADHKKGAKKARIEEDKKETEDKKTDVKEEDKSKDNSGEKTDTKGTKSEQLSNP

LNCaP [6] = assay: Induction of cell cycle arrest in human LNCAP cells assessed as accumulation at G1 phase at 2.5 uM after 24 hrs by propidium iodide staining based FACS analysis (reference value: 69.5%); type: functional
[7] = target: T4, Prostaglandin G/H synthase 2 (Homo sapiens) (UniProt P35354); assay: Inhibition of recombinant human COX2 at 10 uM using arachidonic acid as substrate preincubated for 15 mins followed by substrate addition for 2 mins by Cayman based fluorescence assay
T4 sequence (whole entry): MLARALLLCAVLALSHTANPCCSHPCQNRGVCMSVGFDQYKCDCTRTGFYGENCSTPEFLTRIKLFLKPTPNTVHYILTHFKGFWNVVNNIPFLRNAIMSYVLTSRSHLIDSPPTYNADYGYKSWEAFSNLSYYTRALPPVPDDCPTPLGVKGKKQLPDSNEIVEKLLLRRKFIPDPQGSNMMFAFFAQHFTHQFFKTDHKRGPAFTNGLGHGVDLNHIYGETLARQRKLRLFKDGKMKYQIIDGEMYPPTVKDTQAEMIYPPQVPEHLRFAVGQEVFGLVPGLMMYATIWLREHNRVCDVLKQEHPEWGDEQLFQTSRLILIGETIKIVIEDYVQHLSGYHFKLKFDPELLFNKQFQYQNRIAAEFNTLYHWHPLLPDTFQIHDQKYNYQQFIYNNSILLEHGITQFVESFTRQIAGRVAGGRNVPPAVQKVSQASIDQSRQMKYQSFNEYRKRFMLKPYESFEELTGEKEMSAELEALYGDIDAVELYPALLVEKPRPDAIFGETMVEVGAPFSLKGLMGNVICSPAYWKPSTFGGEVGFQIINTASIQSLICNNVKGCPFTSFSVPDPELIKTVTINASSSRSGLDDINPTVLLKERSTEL

LNCaP [8] = assay: Inhibition of class 1 HDAC in human LNCAP cells assessed as acetylated histone H4 accumulation after 24 hrs by Western blot analysis; type: cell-based
Histone deacetylase 3 = Histone deacetylase 3 (Homo sapiens, UniProt O15379); assay: Inhibition of HDAC3 (unknown origin) after 5 hrs by SAMDI mass spectroscopic analysis
Histone deacetylase 3, sequence (O15379 whole entry): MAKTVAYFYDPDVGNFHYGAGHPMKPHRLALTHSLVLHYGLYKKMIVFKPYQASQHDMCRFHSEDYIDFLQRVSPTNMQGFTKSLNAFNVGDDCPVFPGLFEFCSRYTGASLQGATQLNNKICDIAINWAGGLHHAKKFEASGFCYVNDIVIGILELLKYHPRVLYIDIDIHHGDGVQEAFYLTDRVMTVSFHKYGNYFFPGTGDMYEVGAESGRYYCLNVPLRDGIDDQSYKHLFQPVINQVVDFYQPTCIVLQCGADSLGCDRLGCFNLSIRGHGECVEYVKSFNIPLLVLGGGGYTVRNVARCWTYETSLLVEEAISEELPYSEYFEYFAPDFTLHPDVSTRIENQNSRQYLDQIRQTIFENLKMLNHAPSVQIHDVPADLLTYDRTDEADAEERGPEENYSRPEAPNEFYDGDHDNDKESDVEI

SMILES | Activity (LNCaP [1]) | IC50 [2] | IC50 [3] | inhibition [4] | IC50 [5] | IC50 (Histone deacetylase 2) | Activity (LNCaP [6]) | inhibition [7] | inhibition (LNCaP [8]) | IC50 (Histone deacetylase 3)
Cc1ccc(-c2cc(C(F)(F)F)nn2-c2ccc(S(=O)(=O)NCCCCCCC(=O)NO)cc2)cc1 | -0.32% | 3570 nM | 6500 nM | 61.4% | 66 nM | 4050 nM | 57.4% | 100% | Dose-dependent effect | 424 nM
COc1ccc2c(c1)c(CC(=O)NCCCCCCC(=O)NO)c(C)n2C(=O)c1ccc(Cl)cc1 | 1.95% | 21000 nM | 8870 nM | 22.8% | 49 nM | 854 nM | 62.5% | 98.1% | Dose-dependent effect | 356 nM
